Usually IC50 stands for the point on the concentration scale where inhibition reaches its midpoint.

In one test the test system is Rat neutrophils. In words: Test for elastase production by fMLP stimulation (elastase release inhibition). Type of test: cell-based. Conditions: Neutrophil; elastase release from cytochalasin B-primed rat neutrophils stimulated with fMLP (1 μM); elastase activity in supernatant. The procedure: Rat neutrophils preparation was obtained 15-18 hrs after intraperitoneal injection of a 1% sterile casein solution in saline (120 mL/kg). Cells were harvested by peritoneal lavage after the decapitation. The lavage fluid was ice-cold PBS (Phosphate-Buffered Saline). Peritoneal exudates were pooled, centrifuged and suspended in HBSS (Hanks' Balanced Salt Solution) at 1×10^7 cells/mil. Cytochalasin B (final concentration: 5 μg/ml) were added to prime the cells. The cells were added into a 96-well culture plate (190 μL/well) and then the compounds of the present invention at various concentrations (10^−7 to 3×10^−5 M) were added and incubated at 37° C. in an atmosphere of 5% CO2 in air. After 10 minutes, fMLP (20 μM, 10 μL) was added, while 10 μL of an HBSS solution containing 0.4% ethanol was added to the group to which no fMLP was added. After gently stirring, cells were incubated for further 10 minutes. The reaction was stopped on ice, and an incubated supernatant was recovered by centrifugation.
Elastase activity in the incubated supernatant was measured using a specific elastase substrate, N-succinyl-L-alanyl-L-alanyl-L-proline-valine-MCA (Peptide Institute, Inc., Osaka), 0.12 mM in 50 mM Tris-HCl (pH 8.0). Fifty microliter of an incubated supernatant was added to the substrate solution (50 μL) and incubated at 37° C. for 30 minutes. Elastase activity was assayed at a wavelength of 360 nm at excitation and 480 nm at emission.
Elastase release-inhibiting activity (inhibition ratio) was calculated according to the following equation: Inhibition ratio (%)={1−(A−C)/(B−C)}×100 wherein A stands for a fluorescence intensity when […]; and C stands for a fluorescence intensity when fMLP (1 μM) was not added.
Inhibitory concentration of 50% (IC50 value) of the compound of the invention was calculated with a concentration-inhibition ratio curve.

Test [1] has as its system Rat transient MCA occlusion (t-MCAo) model. In words: Infarct volume in rat transient MCA occlusion (t-MCAo) model. Particulars: intravenous 1 hour infusion immediately after reperfusion. Type of test: in vivo. How it is done:
FIG. 1 represents an effect of the compound 50 on infarct volume in rat t-MCAo model. The infarct volumes of total (closed bar), cortex (solid bar) and sub-cortex (open bar) were determined 71 hrs after reperfusion. Data are presented as mean ±SEM. *p<0.05 vs vehicle-treated group (Dunnett's test).
Adult male Wistar rats (200-250 g) were anesthetized with 2% halothane in air. The right internal carotid artery (ICA) was carefully dissected. A silicon-coated suture (18 mm-long) was inserted to the ICA. Body temperature was maintained at 37° C. with a heating pad. […] After 1 hour of MCA occlusion, the thread was removed to allow reperfusion of the ischemic area. Rats were received intravenously 1 hour-infusion of vehicle (10% of HP-β-CD) or the compound 50 dissolved in vehicle immediately after reperfusion.
To measure infarct volume, rats were killed at 71 hours of reperfusion. Brains were perfused transcardially with physiological saline, and removed from skulls, cut into 2-mm coronal sections. The slices were immersed in 2% triphenyltetrazolium chloride (TTC) solution at 37° C. for 30 minutes.
All values were presented as mean ±SEM. For statistical analyses, Dunnett's multiple-range test was used.

`CCCC[C@@H](O)C#CCCCCCCCCCCCCCC(=O)O` [Compound 4, (R)-17-Hydroxyheneicos-15-ynoic acid] registered an IC50 with Rat neutrophils of 10.3 µM. The same measure, in the same setting: in the case of `CCCC[C@@H](O)C#CCCCCCCCCCCCCC(=O)O` [Compound 12, (R)-16-Hydroxyeicos-14-ynoic acid] it was 9.18 µM. `CCCC[C@@H](O)/C=C\CCCCCCCCCCCCC(=O)O` [Compound 50, (R)-(Z)-16-Hydroxyeicos-14-enoic acid] displayed an IC50 in the test on Rat neutrophils of 8.29 µM. Moreover, the “reduction of total infarct volume as compared with vehicle-treated group” value in test [1] (0.01 mg/kg/min, 71 hours of reperfusion, significant) is reported as 35.3%. Also, in test [1] (from 0.001 mg/kg/min, doses 0.001, 0.01, 0.1 mg/kg/min), the “effect on infarct volume” value is “reduced the infarct volume”. On to `CCCC[C@@H](O)/C=C\CCCCCCCCCCCC(=O)O` [Compound 65, (R)-(Z)-15-Hydroxynonadec-13-enoic acid], for which the IC50 in the test with Rat neutrophils amounted to 17.5 µM.

Source of the values: patent publication US20050038259A1, “Hydroxyeicosenoic acid anaglogs” (priority 2001, published 2005).
